Results from patent US10202360B2 (CELGENE QUANTICEL RESEARCH, INC., priority 2016, dated 2019).

Target: CREBBP (Homo sapiens (Human), UniProt Q92793)
Test: In vitro enzyme inhibition assay - CREBBP inhibition (AlphaScreen, biotinylated H4-tetraacetyl peptide)
Format: binding
How it was run: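 His-tagged CREBBP expressed in E. coli (50 nM final) incubated with biotinylated H4K5/8/12/16(Ac) peptide (20 nM final) in HEPES pH 7.3 buffer, 0.4% DMSO, 20 min at room temperature.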

[1] = Table 28, AlphaScreen, H4-tetraacetyl peptide

CREBBP, sequence (Q92793 1081-1197): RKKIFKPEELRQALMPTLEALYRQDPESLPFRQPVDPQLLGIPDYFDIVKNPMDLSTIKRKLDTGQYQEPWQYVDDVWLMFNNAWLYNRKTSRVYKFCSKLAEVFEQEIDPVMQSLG

In the case of `CCC[C@@H](C)S(=O)(=O)Nc1cc(-c2ccc(=O)n(C)c2)nc(Oc2c(F)cccc2Cl)n1` [Example 220, (2R)-Pentane-2-sulfonic acid [2-(2-chloro-6-fluoro-phenoxy)-6-(1-methyl-6-oxo-1,6-dihydro-pyridin-3-yl)-pyrimidin-4-yl]-amide], the IC50 [1] is reported as under 0.5 µM.
With `CCCS(=O)(=O)Nc1cc(-c2cc(C)c(=O)n(C)c2)nc(Oc2c(C)cccc2C)n1` [Example 80, N-(6-(1,5-dimethyl-6-oxo-1,6-dihydropyridin-3-yl)-2-(2,6-dimethylphenoxy)pyrimidin-4-yl)propane-1-sulfonamide] the IC50 [1] was under 0.5 µM.
In the case of `CCS(=O)(=O)Nc1cc(-c2cc(C)c(=O)n(C)c2)nc(-c2ccccc2)n1` [Example 191, Ethanesulfonic acid [6-(1,5-dimethyl-6-oxo-1,6-dihydro-pyridin-3-yl)-2-phenyl-pyrimidin-4-yl]-amide], the IC50 [1] is reported as 0.5 to 5 µM.
Work on `Cc1cccc(F)c1Oc1nc(NCC2CCCc3ccccc32)cc(-c2ccc(=O)n(C)c2)n1` (stereo not drawn) [Example 286, 5-(2-(2-fluoro-6-methylphenoxy)-6-(((1,2,3,4-tetrahydronaphthalen-1-yl)methyl)amino)pyrimidin-4-yl)-1-methylpyridin-2(1H)-one] yielded an IC50 [1] of under 0.5 µM.
Work on `CCCC(C)S(=O)(=O)Nc1cc(-c2ccc(=O)n(C)c2)nc(Oc2c(C)cccc2F)n1` (stereo not drawn) [Example 241, Pentane-2-sulfonic acid [2-(2-fluoro-6-methyl-phenoxy)-6-(1-methyl-6-oxo-1,6-dihydro-pyridin-3-yl)-pyrimidin-4-yl]-amide] yielded an IC50 [1] of under 0.5 µM.
Work on `Cc1cc(-c2cc(NS(=O)(=O)C(C)C)nc(Oc3ccccc3)n2)cn(C)c1=O` [Example 69, N-(6-(1,5-dimethyl-6-oxo 1,6-dihydropyridin-3-yl)-2-phenoxypyrimidin-4-yl)propane-2-sulfonamide] yielded an IC50 [1] of under 0.5 µM.
`CCCCNc1cc(-c2ccc(=O)n(C)c2)nc(OC)n1` [Example 325, 5-(6-Butylamino-2-methoxy-pyrimidin-4-yl)-1-methyl-1H-pyridin-2-one] was tested, and the IC50 [1] was 0.5 to 5 µM.
`CCCCNc1cc(-c2ccc(=O)n(C)c2)nc(Oc2c(C)cccc2F)n1` [Example 304, 5-[6-Butylamino-2-(2-fluoro-6-methyl-phenoxy)-pyrimidin-4-yl]-1-methyl-1H-pyridin-2-one] was tested, and the IC50 [1] was under 0.5 µM.
With `Cc1cc(-c2cc(NS(=O)(=O)C(C)C)nc(Oc3cccc4occc34)n2)cn(C)c1=O` [Example 59, N-(2-(benzofuran-4-yloxy)-6-(1,5-dimethyl-6-oxo-1,6-dihydropyridin-3-yl)pyrimidin-4-yl)propane-2-sulfonamide] the IC50 [1] was under 0.5 µM.
In the case of `Cn1cc(-c2cc(NS(=O)(=O)CCCC(F)(F)F)nc(Oc3c(F)cccc3Cl)n2)ccc1=O` [Example 232, 4,4,4-Trifluoro-butane-1-sulfonic acid [2-(2-chloro-6-fluoro-phenoxy)-6-(1-methyl-6-oxo-1,6-dihydro-pyridin-3-yl)-pyrimidin-4-yl]-amide], the IC50 [1] is reported as under 0.5 µM.
`CCS(=O)(=O)Nc1nc(Oc2c(C)cccc2Cl)nc(-c2ccc(=O)n(C)c2)n1` [Example 179, Ethanesulfonic acid [4-(2-chloro-6-methyl-phenxoy)-6-(1-methyl-6-oxo-1,6-dihydro-pyridin-3-yl)-[1,3,5]triazin-2-yl]-amide] was tested, and the IC50 [1] was under 0.5 µM.
`CCS(=O)(=O)Nc1cc(-c2ccc(=O)n(C)c2)nc(-c2ccc(C)cc2OC)n1` [Example 194, Ethanesulfonic acid [2-(2-methoxy-4-methyl-phenyl)-6-(1-methyl-6-oxo-1,6-dihydro-pyridin-3-yl)-pyrimidin-4-yl]-amide] was tested, and the IC50 [1] was 0.5 to 5 µM.
In the case of `CCS(=O)(=O)Nc1nc(Oc2c(C)cccc2F)nc(-c2ccc(=O)n(C)c2)n1` [Example 175, Ethanesulfonic acid [4-(2-fluoro-6-methyl-phenxoy)-6-(1-methyl-6-oxo-1,6-dihydro-pyridin-3-yl)-[1,3,5]triazin-2-yl]-amide], the IC50 [1] is reported as under 0.5 µM.
With `CCCCS(=O)(=O)Nc1cc(-c2cc(F)c(=O)n(C)c2)nc(Oc2c(C)cccc2C)n1` [Example 86, N-(2-(2,6-dimethylphenoxy)-6-(5-fluoro-1-methyl-6-oxo-1,6-dihydropyridin-3-yl)pyrimidin-4-yl)butane-1-sulfonamide] the IC50 [1] was under 0.5 µM.
For `Cc1cc(Cl)cc(Cl)c1Oc1nc(NS(=O)(=O)C(C)C)cc(-c2ccc(=O)n(C)c2)n1` [Example 34, Propane-2-sulfonic acid [2-(2,4-dichloro-6-methyl-phenoxy)-6-(1-methyl-6-oxo-1,6-dihydro-pyridin-3-yl)-pyrimidin-4-yl]-amide], the IC50 [1] was under 0.5 µM.
`CCC(F)S(=O)(=O)Nc1cc(-c2ccc(=O)n(C)c2)nc(Oc2c(C)cccc2F)n1` (stereo not drawn) [Example 168, 1-Fluoro-propane-1-sulfonic acid [2-(2-fluoro-6-methyl-phenoxy)-6-(1-methyl-6-oxo-1,6-dihydro-pyridin-3-yl)-pyrimidin-4-yl]-amide] was tested, and the IC50 [1] was under 0.5 µM.
In the case of `CCCCS(=O)(=O)Nc1cc(-c2cc(C)c(=O)n(C)c2)nc(Oc2c(C)nn(CC)c2C)n1` [Example 128, Butane-1-sulfonic acid [6-(1,5-dimethyl-6-oxo-1,6-dihydro-pyridin-3-yl)-2-(1-ethyl-3,5-dimethyl-1H-pyrazol-4-yloxy)-pyrimidin-4-yl]-amide], the IC50 [1] is reported as under 0.5 µM.
With `CCS(=O)(=O)Nc1cc(-c2cc(C)c(=O)n(C)c2)nc(OC(C)C)n1` [Example 140, Ethanesulfonic acid [6-(1,5-dimethyl-6-oxo-1,6-dihydro-pyridin-3-yl)-2-isopropoxy-pyrimidin-4-yl]-amide] the IC50 [1] was under 0.5 µM.
Work on `CCCCS(=O)(=O)Nc1cc(-c2ccc(=O)n(C)c2)nc(Oc2c(F)cccc2Cl)n1` [Example 139, Butane-1-sulfonic acid [2-(2-chloro-6-fluoro-phenoxy)-6-(1-methyl-6-oxo-1,6-dihydro-pyridin-3-yl)-pyrimidin-4-yl]-amide] yielded an IC50 [1] of under 0.5 µM.
`CCCCS(=O)(=O)Nc1cc(-c2ccc(=O)n(C)c2)nc(Oc2c(F)cccc2F)n1` [Example 342, N-(2-(2,6-difluorophenoxy)-6-(1-methyl-6-oxo-1,6-dihydropyridin-3-yl)pyrimidin-4-yl)butane-1-sulfonamide] showed an IC50 [1] of under 0.5 µM.
In the case of `Cc1sc2c(c1C)C(c1ccc(Cl)cc1)=N[C@@H](CC(=O)OC(C)(C)C)c1nnc(C)n1-2` [JQ-1, tert-butyl (S)-2-(4-(4-chlorophenyl)-2,3,9-trimethyl-6H-thieno[3,2-f][1,2,4]triazolo[4,3-a][1,4]diazepin-6-yl)acetate, reference compound], the IC50 (Table 29) is reported as over 5 µM.
For `Cc1cccc(F)c1Oc1nc(NCc2ccccn2)cc(-c2ccc(=O)n(C)c2)n1` [Example 302, 5-{2-(2-Fluoro-6-methyl-phenoxy)-6-[(pyridin-2-ylmethyl)-amino]-pyrimidin-4-yl}-1-methyl-1H-pyridin-2-one], the IC50 [1] was under 0.5 µM.
With `CC(C)S(=O)(=O)Nc1cc(-c2ccc(=O)n(C)c2)nc(Oc2c(F)cccc2Cl)n1` [Example 144, Propane-2-sulfonic acid [2-(2-chloro-6-fluoro-phenoxy)-6-(1-methyl-6-oxo-1,6-dihydro-pyridin-3-yl)-pyrimidin-4-yl]-amide] the IC50 [1] was under 0.5 µM.
In the case of `COc1nc(NCC2CCCc3ccccc32)cc(-c2ccc(=O)n(C)c2)n1` (stereo not drawn) [Example 331, 5-{2-Methoxy-6-[(1,2,3,4-tetrahydro-naphthalen-1-ylmethyl)-amino]-pyrimidin-4-yl}-1-methyl-1H-pyridin-2-one], the IC50 [1] is reported as under 0.5 µM.
Work on `CC[C@H](C)S(=O)(=O)Nc1cc(-c2ccc(=O)n(C)c2)nc(Oc2c(Cl)ccc(C)c2F)n1` [Example 226, (S)-Butane-2-sulfonic acid [2-(6-chloro-2-fluoro-3-methyl-phenoxy)-6-(1-methyl-6-oxo-1,6-dihydro-pyridin-3-yl)-pyrimidin-4-yl]-amide] yielded an IC50 [1] of under 0.5 µM.
For `CCCCS(=O)(=O)Nc1cc(-c2cc(C)c(=O)n(C)c2)nc(Oc2ccccc2C#N)n1` [Example 37, Butane-1-sulfonic acid [2-(2-cyano-phenoxy)-6-(1,5-dimethyl-6-oxo-1,6-dihydro-pyridin-3-yl)-pyrimidin-4-yl]-amide], the IC50 [1] was under 0.5 µM.
`CCCS(=O)(=O)Nc1cc(-c2cc(C)c(=O)n(C3COC3)c2)nc(Oc2c(C)cccc2C)n1` [Example 55, Propane-1-sulfonic acid [2-(2,6-dimethyl-phenoxy)-6-(5-methyl-1-oxetan-3-yl-6-oxo-1,6-dihydro-pyridin-3-yl)-pyrimidin-4-yl]-amide] gave an IC50 [1] of 0.5 to 5 µM.
`Cn1cc(-c2cc3nc(n2)Oc2cccc(c2)OCCC=CCCS(=O)(=O)N3)ccc1=O` [Example 358, 5-(11,11-dioxido-2,4-dioxa-11-thia-12-aza-1(2,4)-pyrimidina-3(1,3)-benzenacyclododecaphan-7-en-1^6-yl)-1-methylpyridin-2(1H)-one] was tested, and the IC50 [1] was under 0.5 µM.
For `CC[C@H](C)S(=O)(=O)Nc1cc(-c2ccc(=O)n(C)c2)nc(Oc2c(F)cccc2F)n1` [Example 229, (S)-N-(2-(2,6-difluorophenoxy)-6-(1-methyl-6-oxo-1,6-dihydropyridin-3-yl)pyrimidin-4-yl)butane-2-sulfonamide], the IC50 [1] was under 0.5 µM.
`CCS(=O)(=O)Nc1cc(-c2ccc(=O)n(C)c2)nc(-c2ccccc2OC)n1` [Example 199, Ethanesulfonic acid [2-(2-methoxy-phenyl)-6-(1-methyl-6-oxo-1,6-dihydro-pyridin-3-yl)-pyrimidin-4-yl]-amide] showed an IC50 [1] of 0.5 to 5 µM.
`COc1ccc(C)cc1Oc1nc(NS(=O)(=O)C(C)C)cc(-c2cc(C)c(=O)n(C)c2)n1` [Example 4, Propane-2-sulfonic acid [6-(1,5-dimethyl-6-oxo-1,6-dihydro-pyridin-3-yl)-2-(2-methoxy-5-methyl-phenoxy)-pyrimidin-4-yl]-amide] gave an IC50 [1] of under 0.5 µM.
`Cc1cccc(C#N)c1Oc1nc(NS(=O)(=O)CCCF)cc(-c2cc(C)c(=O)n(C)c2)n1` [Example 115, 3-Fluoro-propane-1-sulfonic acid [2-(2-cyano-6-methyl-phenoxy)-6-(1,5-dimethyl-6-oxo-1,6-dihydro-pyridin-3-yl)-pyrimidin-4-yl]-amide] showed an IC50 [1] of under 0.5 µM.
Molecule `CCCCS(=O)(=O)Nc1cc(-c2cc(C)c(=O)n(C)c2)nc(Oc2cc(C)ccc2C#N)n1` [Example 36, Butane-1-sulfonic acid [2-(2-cyano-5-methyl-phenoxy)-6-(1,5-dimethyl-6-oxo-1,6-dihydro-pyridin-3-yl)-pyrimidin-4-yl]-amide] has an IC50 [1] of under 0.5 µM.
